“And” between values parts separate entries of the source, which are not always exact repeats. Equal values may be shown once. Read-outs that look alike come from different tables or passages of the source.
What was measured:
[1] = system: A2780; assay: Cell Titer Glo 2.0 viability, prexasertib alone or with gemcitabine, three days (Example 11); type: cell-based; settings: Homo sapiens, A2780, 72 h
Method: (§1) The present Example provides experimental evidence that treatment with gemcitabine sensitizes human cancer cell lines to treatment with prexasertib. A panel of human cancer cell lines were treated with various concentrations of prexasertib (0.17, 0.51, 1.5, 4.6, 13.7, 31.2, 123.5, 370.4, 1111, 3333, and 10000 nM) alone or in combination with various low dose concentrations of gemcitabine (0.53 and 2.7 nM). The panel of cell lines included ovarian, endometrial, bladder, breast, and prostate cancer cell lines. Two ovarian cancer cell lines (OVCAR3 and OV90) were used to generate acquired prexasertib resistant cells. For both cell lines, the parental cells (OVCAR3-P and OV90-P) and acquired prexasertib resistant cells (OVCAR3-R and OV90-R) were tested. Additionally, the panel included three cell lines that are naïve resistant to prexasertib (SW780, T47D, and PC3). After three days of treatment, cell viability relative to DMSO control was assessed using Cell Titer Glo 2.0 (Promega).
(§2) To determine whether gemcitabine and prexasertib acts synergistically, additively, or potentially antagonistically, the panel of human cancer cell lines were treated with various concentrations of prexasertib (0.17, 0.51, 1.5, 4.6, 13.7, 31.2, 123.5, 370.4, 1111, 3333, and 10000 nM) in combination with various concentrations of gemcitabine (1, 3, 13, 67, 333, 1667, 8333 nM). After three days treatment, cell viability relative to DMSO control was assessed using Cell Titer Glo 2.0 (Promega). Drug combination effect was evaluated using SynergyFinder 2.0, see Ianevski et al., Nucleic Acids Res., gkaa216 (2020), and is presented in Table 15 as a Bliss synergy score for each cell line. Bliss synergy scores greater than 10 are indicative of a synergistic effect between prexasertib and gemcitabine, while scores between 10 and −10 are indicative of an additive effect and scores less than −10 are indicative of an antagonistic effect. […] Taken together, the results of this Example support use of a combination of prexasertib and gemcitabine (e.g., low doses of gemcitabine) for treatment of predicted non-responders to prexasertib treatment.

[2] = system: OV90-P; assay: as above; type: cell-based; settings: Homo sapiens, 72 h
Method: as §1, §2

[3] = system: TCCSUP; assay: as above; type: cell-based; settings: Homo sapiens, TCC-SUP, 72 h
Method: as §1, §2

[4] = system: SW780; assay: as above; type: cell-based; settings: Homo sapiens, 72 h, gemcitabine 0.53 nM
Method: as §1, §2

[5] = system: PANC1; settings: PANC1 cell line; external data from prior publications; cited from earlier work
[6] = system: metastatic high-grade serous ovarian cancer; assay: Observed treatment outcome in phase II clinical trials, patients with frozen pre-treatment biopsies (Example 4); type: in vivo, human; parameters: key to Treatment Result (RECIST): partial response (PR); stable disease (SD); progressive disease (PD)
Method: The study was conducted in a blinded, prospectively designed manner on pretreatment tumor biopsies collected from ovarian cancer patients treated in phase 2 trials at the NCI in the past with prexasertib, including a previous single center phase II clinical trial for prexasertib in metastatic high-grade serous ovarian cancer; see Lee et al., Lancet Oncol. 19(2): 207-215 (2018). These past studies were unable to identify predictive biomarkers. To evaluate whether a provided Response-Predictive Signature can successfully predict patient responders, frozen, de-identified sections of pre-treatment tumor biopsies from the phase II clinical trials were obtained. Moreover, they were received without any knowledge about clinical annotation, including response to prexasertib. Each patient tumor biopsy sample was stained using antibodies against three biomarkers and imaged using immunofluorescence microscopy. Biomarker 1 (BM1) was Ser296 phosphorylated Chk1. Biomarker 2 (BM2) was Ser473 phosphorylated Kap1. Biomarker 3 (BM3) was total cyclin E1. Unless otherwise indicated, these were the biomarkers used throughout the Examples.
To evaluate whether the provided Response-Predictive Signature can predict response to prexasertib treatment, the predicted response for each patient was compared to the observed treatment outcomes in the previously conducted phase II clinical trials for the patient (Table 6 and FIGS. 5, 12, and 13). This was done in a blinded manner, with quantitative biomarker scores and clinical annotation provided to a third-party biostatistician and the principal investigator, respectively. Observed treatment outcomes were classified according to RECIST criteria as partial response (PR), stable disease (SD), or progressive disease (PD). […] Additionally, the observed treatment outcome was quantified based on the fractional change in tumor volume after treatment and progression free survival (PFS) (Table 6 and FIGS. 5, 12, and 13).

[7] = system: Head and Neck, SCC; settings: cited from earlier work
[8] = system: U2020; assay: Cell viability, sensitivity to prexasertib (Example 1); type: cell-based, human; settings: U2020 cell line
Method: (§3) Predicted response to prexasertib was compared to experimentally measured sensitivity to prexasertib. […] EC50 values of less than or equal to 1 μM were considered to be actual responders, while values of greater than 1 μM were considered to be actual non-responders.

[9] = system: MCF7; assay: as above; type: cell-based, human; settings: MCF7 cell line
Method: as §3

[10] = system: OVCAR3; assay: as above; type: cell-based, human; settings: OVCAR3 cell line
Method: as §3

[11] = system: PC3; assay: as above; type: cell-based, human; settings: PC3 cell line
Method: as §3

[12] = system: CAOV3; assay: as above; type: cell-based, human; settings: CAOV3 cell line
Method: as §3

[13] = system: U1752; assay: as above; type: cell-based, human; settings: U1752 cell line
Method: as §3

[14] = gemcitabine 0 nM, read-out: Prexasertib Relative IC50
[15] = gemcitabine 0.53 nM, read-out: Prexasertib Absolute IC50
[16] = gemcitabine 0.53 nM, read-out: Prexasertib Relative IC50
[17] = gemcitabine 0 nM, read-out: Prexasertib Absolute IC50
[18] = individual patients predicted non-responder (NR)
[19] = individual patients predicted responder (R)
[20] = Homo sapiens, reduction in cell viability by 50%
[21] = based on measured sensitivity (EC50)

SMILES: COc1cccc(OCCCN)c1-c1cc(Nc2cnc(C#N)cn2)n[nH]1 [prexasertib, 5-(5-(2-(3-aminopropoxy)-6-methoxyphenyl)-1H-pyrazol-3-ylamino)pyrazine-2-carbonitrile]
- IC50 [1, 14]: 8.5 nM
- IC50 [1, 15]: 0.5 nM
- IC50 [1, 16]: 0.3 nM
- IC50 [2, 17]: 49 nM
- IC50 [2, 14]: 0.5 nM
- IC50 [2, 15]: 0.93 nM
- IC50 [2, 16]: 0.14 nM
- IC50 [3, 17]: 2.8 nM
- IC50 [3, 14]: 1.4 nM
- IC50 [3, 15]: 0.08 nM
- IC50 [3, 16]: 0.04 nM
- IC50 ([4]; read-out: Prexasertib Absolute IC50): 0.3 nM
- IC50 ([4]; read-out: Prexasertib Relative IC50): 0.06 nM
- EC50 [5]: > 10000 nM
- FracShrink (fractional change in tumor volume) [6, 18]: 0.109 and 0 and −0.26 and −0.1 and 1.04 and 0.02 and 0.085 and −0.04
- PFS [6, 18]: 70 days and 56 days and 223 days and 104 days and 63 days and 33 days and 62 days and 112 days
- Treatment Result (RECIST) [6, 18]: SD (4×) and PD (4×)
- FracShrink (fractional change in tumor volume) [6, 19]: −0.36 and −0.345 and −0.46 and −0.33 and −0.27 and −0.01 (2×) and −0.23 and −0.76 and −0.14 and −0.02 and −0.11 and −0.5 and −0.495 and −0.194
- PFS [6, 19]: 101 days and 402 days and 286 days and 211 days and 392 days and 62 days and 510 days and 602 days and 238 days and 258 days and 140 days and 293 days and 230 days and 112 days and 123 days
- Treatment Result (RECIST) [6, 19]: PR (7×) and SD (7×) and PD
- ORR in trials [7]: 5%
- EC50 [8, 20]: 7 nM
- Actual response status [8, 21]: R (EC50 values of less than or equal to 1 μM were considered to be actual responders)
- EC50 [9, 20]: > 10000 nM
- Actual response status [9, 21]: NR (values of greater than 1 μM were considered to be actual non-responders)
- EC50 ([10]; Homo sapiens, OVCAR-3, reduction in cell viability by 50%): 19 nM
- Actual response status [10, 21]: R (EC50 values of less than or equal to 1 μM were considered to be actual responders)
- EC50 ([11]; Homo sapiens, PC-3, reduction in cell viability by 50%): > 10000 nM
- Actual response status [11, 21]: NR (values of greater than 1 μM were considered to be actual non-responders)
- Actual response status [12, 21]: R (EC50 values of less than or equal to 1 μM were considered to be actual responders)
- EC50 ([12]; Homo sapiens, Caov-3, reduction in cell viability by 50%): 17 nM
- EC50 [13, 20]: > 10000 nM
- Actual response status [13, 21]: NR (values of greater than 1 μM were considered to be actual non-responders)
